Patent US8481597B2, “Use of (-) (3-trihalomethylphenoxy) (4-halophenyl) acetic acid derivatives for treatment of insulin resistance, type 2 diabetes, hyperlipidemia and hyperuricemia” (Metabolex, Inc., priority 1999, dated 2013)

Experiment: Pharmacokinetic study of (±) halofenate and (−) halofenate in SD rats (Example 14)
Format: in vivo
Details: single oral (−) halofenate 50 mg/kg, Rats 8, 9, 11 individually, BQL <1.00 μg/mL
Method: Male 225-250 g SD rats were purchased from Charles River. […] A catheter was placed in the left carotid artery under sodium pentobarbital (50 mg/kg i.p.) and animals were allowed to recover for 2 days before treatment. […] The gavage volume was 5 ml/kg. Blood samples were collected at 1, 2, 4, 6, 8, 12, 24, 48, 72, 96 and 120 hours post dose. The plasma samples were analyzed for each enantiomeric acid ((−) halofenic acid and (+) halofenic acid) by a chiral specific HPLC assay, since the esters are prodrugs, which are designed to convert to their respective enantiomeric acids in vivo.

CC(=O)NCCOC(=O)C(Oc1cccc(C(F)(F)F)c1)c1ccc(Cl)cc1 (single isomer, unassigned; (-)) [(−) halofenate, (−) 2-acetamidoethyl 4-chlorophenyl-(3-trifluoromethylphenoxy)acetate]
BQL: Plasma concentration of (+) halofenic acid (time 0 hour) | Plasma concentration of (−) halofenic acid (time 0 hour) | Plasma concentration of (+) halofenic acid (time 1 hour) | Plasma concentration of (+) halofenic acid (time 2 hours) | Plasma concentration of (+) halofenic acid (time 4 hours) | Plasma concentration of (+) halofenic acid (time 6 hours) | Plasma concentration of (+) halofenic acid (time 8 hours) | Plasma concentration of (+) halofenic acid (time 72 hours) | Plasma concentration of (+) halofenic acid (time 96 hours) | Plasma concentration of (+) halofenic acid (time 120 hours)
